The source of these data is paper PMC10485159, “Biochemical functions and structure of Caenorhabditis elegans ZK177.8 protein: Aicardi–Goutières syndrome SAMHD1 dNTPase ortholog” (The Journal of Biological Chemistry, 2023).

The structures appear in SMILES notation.

One assay deals with T1, ZK177.8^41–565 (Caenorhabditis elegans, UniProt Q09374, H134R/D135N).
T1 construct: gene sahd-1; tetramer in asymmetric unit
T1 sequence (Q09374 41-565 H134R/D135N): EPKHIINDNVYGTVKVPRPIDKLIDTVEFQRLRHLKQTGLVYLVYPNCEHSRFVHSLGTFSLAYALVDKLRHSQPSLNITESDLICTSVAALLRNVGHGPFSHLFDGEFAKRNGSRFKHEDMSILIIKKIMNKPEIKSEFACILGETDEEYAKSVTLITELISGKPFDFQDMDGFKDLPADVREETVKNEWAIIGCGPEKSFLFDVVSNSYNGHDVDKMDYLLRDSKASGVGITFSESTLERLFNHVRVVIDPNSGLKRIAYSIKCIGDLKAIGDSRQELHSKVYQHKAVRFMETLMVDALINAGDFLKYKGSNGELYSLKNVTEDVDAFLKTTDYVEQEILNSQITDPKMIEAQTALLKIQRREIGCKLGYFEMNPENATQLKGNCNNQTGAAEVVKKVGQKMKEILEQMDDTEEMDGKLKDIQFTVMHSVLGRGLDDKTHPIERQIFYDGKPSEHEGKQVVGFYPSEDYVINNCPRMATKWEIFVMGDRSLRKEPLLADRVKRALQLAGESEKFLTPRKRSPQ
Briefly: X-ray crystallography, […] Å. In kind it is binding. The following applies: crystals with 1 mM GTP / 10 mM dATP, pH 5.5.

The next assay deals with T2, hSAMHD1 (Homo sapiens, UniProt Q9Y3Z3).
T2 construct: gene SAMHD1; purified human SAMHD1; construct not described; dGTP-induced tetramer
T2 sequence (Q9Y3Z3 whole entry): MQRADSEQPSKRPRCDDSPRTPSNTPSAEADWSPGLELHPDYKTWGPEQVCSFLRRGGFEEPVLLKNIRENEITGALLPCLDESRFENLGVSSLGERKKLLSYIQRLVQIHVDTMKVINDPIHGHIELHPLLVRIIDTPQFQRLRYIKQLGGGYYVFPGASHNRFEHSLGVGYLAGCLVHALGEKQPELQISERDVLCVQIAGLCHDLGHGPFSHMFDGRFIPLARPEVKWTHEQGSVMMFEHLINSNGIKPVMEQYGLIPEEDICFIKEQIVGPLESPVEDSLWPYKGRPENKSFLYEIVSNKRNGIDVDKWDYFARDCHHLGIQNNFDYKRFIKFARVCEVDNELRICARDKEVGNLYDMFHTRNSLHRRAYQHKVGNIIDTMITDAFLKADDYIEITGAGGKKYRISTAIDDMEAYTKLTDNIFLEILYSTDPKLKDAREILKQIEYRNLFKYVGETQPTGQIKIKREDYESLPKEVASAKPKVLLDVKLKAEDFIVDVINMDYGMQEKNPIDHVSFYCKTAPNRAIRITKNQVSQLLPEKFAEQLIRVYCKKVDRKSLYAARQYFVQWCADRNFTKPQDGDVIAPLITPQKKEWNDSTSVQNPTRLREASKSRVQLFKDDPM
Description: formaldehyde cross-linking, dGTP-induced tetramerization, SDS-PAGE. The following applies: 2 mM dGTP, 10 μM protein, 50 mM KCl, 5 mM MgCl2, pH 7.5; allosteric activator; dGTPase activity also compared in supplement Fig. S3. In kind it is binding.

For `Nc1nc2c(ncn2[C@@H]2O[C@H](COP(=O)(O)OP(=O)(O)OP(=O)(O)O)[C@@H](O)[C@H]2O)c(=O)[nH]1` [GTP], the “X-ray crystallography, 1.81 Å” value on ZK177.8^41–565 (allosteric site A1 at tetramer interface) is “Two nucleotides, GTP and dATP, occupy the allosteric site located at the tetramer interface”. For `Nc1ncnc2c1ncn2[C@H]1C[C@H](O)[C@@H](COP(=O)(O)OP(=O)(O)OP(=O)(O)O)O1` [dATP], at ZK177.8^41–565 (catalytic site, unhydrolysed, no catalytic metal, also bound at allosteric site A2), the “X-ray crystallography, 1.81 Å” value is “within each monomer, a dATP molecule occupies its catalytic site”. Consider `Nc1nc2c(ncn2[C@H]2C[C@H](O)[C@@H](COP(=O)(O)OP(=O)(O)OP(=O)(O)O)O2)c(=O)[nH]1` [dGTP], for which the “formaldehyde cross-linking, dGTP-induced tetramerization, SDS-PAGE” value at hSAMHD1 is given as “we detected the tetramer formation of hSAMHD1 protein only in the presence of dGTP”.
